Experimental data: ChEMBL document CHEMBL1212750, “Continuous clindamycin infusion, an innovative approach to treating bone and joint infections” (Antimicrob Agents Chemother, 2010)
The source made the active and inactive calls. The calls are words filed in the database; no cut-off is given here.

What was measured:
[1] = test system: Serum; test: Drug level in bone/joint infection patient serum assessed as median concentration at 2400 mg, iv after 3 to 14 days; type: ADME, organism-based; conditions: human, in vivo
[2] = test system: Staphylococcus aureus; test: Antimicrobial activity against Staphylococcus aureus infection in human assessed as curing from bone/joint infection at 600 mg, iv followed by 30 to 40 mg/kg of body weight, iv followed by oral regimen upto 30 months; type: functional, organism-based
[3] = Cmax po dosed in human co-treated with rifampin; type: ADME, organism-based; design: route oral; conditions: in vivo
[4] = test system: Serum; test: Drug level in bone/joint infection patient serum assessed as median concentration at 2400 mg, iv after 8 to 28 days; type: ADME, organism-based; conditions: human, in vivo
[5] = test system: Staphylococcus aureus; test: Antimicrobial activity against Staphylococcus aureus SJ11617; type: functional

| Drug uptake [1] | Cmax [3] | Drug uptake [4] | MIC [5] | Structure (SMILES) | Activity [2] |
| --- | --- | --- | --- | --- | --- |
| 5 mg/L | < 2500 ng/mL | 6.2 mg/L | – | CCC[C@@H]1C[C@@H](C(=O)N[C@@H]([C@H]2O[C@H](SC)[C@H](O)[C@@H](O)[C@H]2O)[C@H](C)Cl)N(C)C1 [CLINDAMYCIN] | Active |
| – | – | – | > 512 µg/mL | C[C@@H]1O[C@@H]1P(=O)(O)O [FOSFOMYCIN] | – |
| – | – | – | > 256 µg/mL | CC(=O)O[C@H]1C[C@@]2(C)[C@@H](C[C@@H](O)[C@H]3[C@@]4(C)CC[C@@H](O)[C@@H](C)[C@@H]4CC[C@@]32C)/C1=C(\CCC=C(C)C)C(=O)O [FUSIDIC ACID] | – |
| – | – | – | > 128 µg/mL | CO[C@H]1/C=C/O[C@@]2(C)Oc3c(C)c(O)c4c(O)c(c(/C=N/N5CCN(C)CC5)c(O)c4c3C2=O)NC(=O)/C(C)=C\C=C\[C@H](C)[C@H](O)[C@@H](C)[C@@H](O)[C@@H](C)[C@H](OC(C)=O)[C@@H]1C [RIFAMPIN] | – |
